Measurements from patent US11510894B2, “Fast acting inhibitor of gastric acid secretion” (priority 2006, dated 2022).
Values joined by “and” are separate entries in the source; they are usually repeats but may differ in a detail not shown here. Equal values may be shown once. “Also recorded” adds a separate entry of the source.

Legend:
H+, K+-ATPase = assay: Intracellular pH recovery in isolated rat fundic (F1) glands; format: cell-based; conditions: for alkalinization rate of F1 glands: 100 μM secretagogue alone
Protocol: Male Sprague Dawley rats weighing 200-300 g were housed in climate and humidity controlled, light cycled rooms and fed standard chow with free access to water. Prior to experiments, animals were fasted while allowing free access to water for 18-24 hours to reduce basal acid secretion. Following isoflurane anesthesia the animals were sacrificed, an abdominal incision was made exposing the stomach. After isolating the esophagus and duodenal junctures a total gastrectomy was performed with 1-2 cm of esophagus remaining attached to the gastrectomy. We included the esophageal juncture to have a common landmark for all fundic isolations. While holding the esophagus with forceps approximately 3 mm of fundus was removed with 5 mm of the intact esophagus. The removed fundic tissue was placed in ice cold HEPES-buffered Ringer-solution (pH adjusted to 7.4 at 4° C.) and transferred to the stage of a dissection microscope. The fundic glands were visualized under the microscope at 50× magnification. Glands adjacent to the esophageal junction were hand dissected. Following isolation, individual glands were adhered to cover slips that had been pretreated with the biological adhesive Cell-Tak (Cell-Tak™ cell adhesive, BD Biosciences; Bedford, Mass.) […] Molecular Probes, OR USA)) for 15 minutes. […] Measurements were performed in the epifluorescence mode with 60×/0.80 and 40×/0.90 objectives. […] Data points were acquired every 15 s. […] Acid extrusion was monitored in the absence of bicarbonate. […] All data are summarized as mean±S.E. Significance was determined using the one-way ANOVA test with p<0.05 considered to be statistically significant. All chemicals used were obtained from Sigma and Molecular Probes.

H+/K+-ATPase [1] = molecular target: T1, H+/K+-ATPase (Rattus norvegicus, UniProt P09626); assay: Intracellular pH recovery in rat corpus glands (comparison with fundus); format: cell-based
T1 construct: Individual glands were isolated using a hand-dissection technique; from tissue; host or cells: hand-dissected gastric glands of Sprague-Dawley rats (corpus/antrum)
Protocol: Molecular Probes, OR USA)) for 15 minutes. […] Measurements were performed in the epifluorescence mode with 60×/0.80 and 40×/0.90 objectives. […] Data points were acquired every 15 s. […] Acid extrusion was monitored in the absence of bicarbonate. […] All data are summarized as mean±S.E. Significance was determined using the one-way ANOVA test with p<0.05 considered to be statistically significant. All chemicals used were obtained from Sigma and Molecular Probes.

H+/K+-ATPase [2] = molecular target: H+/K+-ATPase (Homo sapiens, UniProt P20648); assay: Intracellular pH recovery (proton extrusion) in isolated human gastric glands; format: cell-based; conditions: histamine stimulation
Text: (§1) Isolation of rat and human gastric Glands. Following removal of the stomach, the stomach was opened longitudinally and the corpus and antrum isolated and sliced into 0.5 cm square sections, and washed with cold Ringer solution to remove residual food particles. The tissues were transferred to the stage of a dissecting microscope. Individual glands were isolated using a hand-dissection technique as described previously^36. Following isolation, individual isolated glands were allowed to adhere to cover slips that had been pre-coated with Cell-Tak (Collaborative Research, Bedford, Mass.) and were transferred to the stage of an inverted microscope.
(§2) Digital imaging for intracellular pH. Isolated gastric glands were incubated in a HEPES-buffered Ringer's solution containing either 10 μmol of the pH-sensitive dye BCECF-AM (2′,7′)-bis-(2-carboxyethyl)-5-(and-6)-carboxy-fluorescin, aceto-methyl ester (Molecular Probes, Eugene, Oreg.) for 10 minutes as described previously^37-39. […] A minimum of 8 cells or regions was selected per gland.
(§3) Proton extrusion by individual parietal cells was monitored by observing recovery of pHi after acid loading the cells with Na^+ free HEPES solution containing 20 mM NH4Cl.
(§4) The recovery rates are expressed as the ΔpH/min, and were calculated over the pH range of 6.5-6.8.

H+/K+-ATPase [3] = molecular target: T1, H+/K+-ATPase; assay: Intracellular pH recovery (proton extrusion) in isolated rat gastric glands, NH4Cl prepulse, BCECF; format: cell-based
Protocol: Animals. Sprague-Dawley rats 150-250 g (Charles River Laboratory)) were housed in climate- and humidity-controlled, light-cycled rooms, fed standard chow with free access to water, and handled according to the humane practices of animal care established by the Yale Animal Care. Prior to experiments, animals were fasted for 18-24 hours with free access to water.
as §1, §2, §3, §4

H+/K+-ATPase [4] = molecular target: T1, H+/K+-ATPase; assay: Oral zinc supplementation in rats, histamine induced proton extrusion of isolated glands; format: in vivo
Protocol: Oral Zinc supplementation in rats. These studies were designed to modulate acid secretion by increasing dietary zinc. In these studies we used an oral ZnCl2 solution (zinc chloride in tap water). The animals had free access to food and the zinc containing water for the duration of the study. […] Animals had free access to water prior to the experiment and were fed with standard chow until 24 hours before the experiment, at which point they had free access to ZnCl2 containing water only. After the 5 days exposure period and the 24 hour fast, the animals were sacrificed and a total gastrectomy was performed on the animals. Individual gastric glands were isolated with the hand dissection technique described above.

[5] = system: histamine induced gastric acid secretion; assay: Whole stomach pH measurements, ex vivo rat whole stomach preparation
Protocol: Whole stomach pH measurements. Before the experiments animals were fasted for 24 h to reduce basal acid secretion to a consistent minimum. Animals were killed with an overdose of isoflurane and an abdominal incision was made. The stomach was ligated at the duodenal and esophageal junction and excised. Then 1 ml of non buffered, isotonic saline (140 mM) was infused into the lumen of the stomach. […] The stomachs were then placed in either oxygenated HEPES-buffered Ringer solution or in the same solution containing 100 μM histamine alone or additionally 300 μM ZnCl2 (pH 7.4) and maintained at 37° C. After 1 hour the stomach contents were aspirated and the pH was recorded.

T1 sequence (P09626 whole entry): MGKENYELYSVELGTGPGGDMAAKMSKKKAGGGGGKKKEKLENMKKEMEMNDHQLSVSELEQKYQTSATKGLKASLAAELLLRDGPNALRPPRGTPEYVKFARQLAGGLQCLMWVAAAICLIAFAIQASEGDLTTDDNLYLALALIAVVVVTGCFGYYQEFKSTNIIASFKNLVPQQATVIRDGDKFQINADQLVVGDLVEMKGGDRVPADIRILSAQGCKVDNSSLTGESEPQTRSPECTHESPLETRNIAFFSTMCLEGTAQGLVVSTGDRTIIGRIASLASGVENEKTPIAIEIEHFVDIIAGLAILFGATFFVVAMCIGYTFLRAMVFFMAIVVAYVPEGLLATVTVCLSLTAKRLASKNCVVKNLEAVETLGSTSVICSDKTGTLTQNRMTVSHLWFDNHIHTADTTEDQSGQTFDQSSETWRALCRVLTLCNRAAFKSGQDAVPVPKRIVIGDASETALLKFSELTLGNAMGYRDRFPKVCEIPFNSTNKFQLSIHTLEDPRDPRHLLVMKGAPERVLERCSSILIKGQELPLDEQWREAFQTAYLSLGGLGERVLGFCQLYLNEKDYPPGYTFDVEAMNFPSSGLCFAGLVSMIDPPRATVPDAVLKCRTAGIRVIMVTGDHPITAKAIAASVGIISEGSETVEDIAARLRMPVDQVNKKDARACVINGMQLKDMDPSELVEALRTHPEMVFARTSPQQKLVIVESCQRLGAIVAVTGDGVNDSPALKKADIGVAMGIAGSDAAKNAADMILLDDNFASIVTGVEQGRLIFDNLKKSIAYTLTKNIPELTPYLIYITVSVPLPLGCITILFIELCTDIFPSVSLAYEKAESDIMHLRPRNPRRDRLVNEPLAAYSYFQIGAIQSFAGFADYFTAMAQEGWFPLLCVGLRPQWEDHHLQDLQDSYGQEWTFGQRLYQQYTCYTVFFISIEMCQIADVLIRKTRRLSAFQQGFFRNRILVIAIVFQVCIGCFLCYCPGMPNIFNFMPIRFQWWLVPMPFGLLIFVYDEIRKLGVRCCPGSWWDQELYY
T1 sequence (P18598 whole entry partner): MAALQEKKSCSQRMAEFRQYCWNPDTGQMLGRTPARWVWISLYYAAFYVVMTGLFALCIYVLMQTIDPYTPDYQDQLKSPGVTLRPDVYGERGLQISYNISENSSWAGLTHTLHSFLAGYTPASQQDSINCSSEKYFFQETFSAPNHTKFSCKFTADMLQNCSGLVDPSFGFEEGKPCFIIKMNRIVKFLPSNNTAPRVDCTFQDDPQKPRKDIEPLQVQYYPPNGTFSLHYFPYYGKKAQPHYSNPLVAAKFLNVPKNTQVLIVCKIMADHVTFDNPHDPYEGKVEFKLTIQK
Chain of H+/K+-ATPase (Homo sapiens, UniProt P20648) (P20648 whole entry): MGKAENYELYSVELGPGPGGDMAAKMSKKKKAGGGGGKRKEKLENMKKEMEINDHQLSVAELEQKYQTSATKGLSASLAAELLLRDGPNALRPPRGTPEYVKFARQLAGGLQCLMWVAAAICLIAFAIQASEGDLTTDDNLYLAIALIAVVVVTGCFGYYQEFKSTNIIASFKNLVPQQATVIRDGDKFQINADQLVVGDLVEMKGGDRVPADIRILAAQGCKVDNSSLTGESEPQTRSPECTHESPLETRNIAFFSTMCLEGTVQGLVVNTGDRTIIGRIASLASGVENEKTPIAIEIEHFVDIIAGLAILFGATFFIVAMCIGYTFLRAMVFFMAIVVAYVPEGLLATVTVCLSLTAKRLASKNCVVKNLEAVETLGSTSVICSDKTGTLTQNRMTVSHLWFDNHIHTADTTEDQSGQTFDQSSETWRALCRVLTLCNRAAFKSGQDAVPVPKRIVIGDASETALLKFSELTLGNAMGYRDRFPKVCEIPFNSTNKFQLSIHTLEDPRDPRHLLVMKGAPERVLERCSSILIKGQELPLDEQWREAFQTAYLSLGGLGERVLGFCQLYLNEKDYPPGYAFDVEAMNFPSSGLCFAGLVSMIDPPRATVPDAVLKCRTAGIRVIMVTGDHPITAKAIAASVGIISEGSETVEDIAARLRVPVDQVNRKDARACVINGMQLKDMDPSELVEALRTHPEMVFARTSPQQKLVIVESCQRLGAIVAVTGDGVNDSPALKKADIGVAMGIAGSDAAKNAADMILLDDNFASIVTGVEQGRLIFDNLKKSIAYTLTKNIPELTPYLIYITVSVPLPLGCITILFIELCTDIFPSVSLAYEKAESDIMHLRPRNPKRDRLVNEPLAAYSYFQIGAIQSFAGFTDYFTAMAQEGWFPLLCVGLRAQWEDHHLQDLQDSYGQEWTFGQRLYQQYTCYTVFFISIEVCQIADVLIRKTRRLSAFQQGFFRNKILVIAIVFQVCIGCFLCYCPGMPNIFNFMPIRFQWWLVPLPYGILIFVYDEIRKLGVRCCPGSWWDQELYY
Chain of H+/K+-ATPase (Homo sapiens, UniProt P20648) (P51164 whole entry partner): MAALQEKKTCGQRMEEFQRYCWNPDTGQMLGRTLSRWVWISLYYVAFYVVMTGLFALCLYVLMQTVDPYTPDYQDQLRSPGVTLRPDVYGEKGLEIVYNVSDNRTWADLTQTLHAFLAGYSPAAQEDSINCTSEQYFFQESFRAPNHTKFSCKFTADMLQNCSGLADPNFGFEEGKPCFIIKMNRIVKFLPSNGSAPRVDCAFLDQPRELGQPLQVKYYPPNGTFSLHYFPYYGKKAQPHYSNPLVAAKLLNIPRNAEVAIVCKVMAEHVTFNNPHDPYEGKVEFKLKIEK

Compound: Cc1cccc(C)c1CNc1cc(C(=O)NCCO)cn2c(C)c(C)nc12 [AZD0865]
- inhibition of acid secretion in F1 (fundic) glands, in words (H+, K+-ATPase; omeprazole 200 μM with histamine 100 μM, AZD0865 10 μM): does not completely inhibit proton extrusion
- inhibition of acid secretion in corpus glands, in words (H+/K+-ATPase [1]; omeprazole 200 μM, AZD0865 10 μM): effectively inhibits acid secretion; also recorded: strong inhibition

Compound: [Cl-].[Cl-].[Zn+2] [ZnCl2, zinc chloride]
- effect on histamine stimulated proton efflux in human gastric glands (H+/K+-ATPase [2]): abolished
- inhibition of proton extrusion compared to the histamine induced rate (H+/K+-ATPase [3]; 300 μM ZnCl2, 100 μM histamine): 98%
- effect on histamine induced proton efflux from gastric glands (H+/K+-ATPase [3]; 300 umol ZnCl2, histamine 100 μM): blocked
- onset of inhibition of histamine induced acid secretion (H+/K+-ATPase [3]; ZnCl2 300 μM added to superfusion bath, histamine 100 μM): abolished after a few seconds
- histamine induced proton extrusion rate after oral ZnCl2 (H+/K+-ATPase [4]; 0.5 mg/kg/d ZnCl2 in drinking water for 5 days): 0.034±0.0036
- histamine induced proton extrusion rate after oral ZnCl2 (H+/K+-ATPase [4]; 150 mg/kg/d ZnCl2 in drinking water for 5 days): 0.022±0.0045
- mean luminal pH ([5]; 100 μM histamine and 300 μM ZnCl2, 1 hour): 4.54±0.065
- whole stomach pH in words ([5]; 100 μmol histamine and 300 μmol ZnCl2): higher pH than those in HEPES-buffered Ringer solution and histamine

Compound: CC(=O)OCC[N+](C)(C)C [acetylcholine]
- alkalinization rate of F1 glands (H+, K+-ATPase): 0.075±0.0015 ΔpHi/min

Compound: NCCc1c[nH]cn1 [histamine]
- effect of secretagogue on F1 zone glands in comparison to controls, in words (H+, K+-ATPase; 100 μM): no effect
- alkalinization rate of F1 glands (H+, K+-ATPase): 0.04±0.0079 ΔpHi/min and 0.042±0.007 ΔpHi/min
- recovery rate (proton extrusion) of histamine stimulated parietal cells (H+/K+-ATPase [4]; control group, histamine alone, no zinc): 0.051±0.004
- mean luminal pH ([5]; 100 μM histamine, 1 hour): 3.15±0.27
- histamine stimulated proton extrusion rate in corpus gland (H+/K+-ATPase [1]; 100 μM histamine): 0.056±0.008 ΔpHi/min

Compound: COc1ccc2[nH]c([S+]([O-])Cc3ncc(C)c(OC)c3C)nc2c1 (centres unmarked) [omeprazole]
- alkalinization rate of fundic glands (H+, K+-ATPase; 200 μM omeprazole and 100 μM histamine): 0.045±0.002 ΔpHi/min
